Data on one compound can be found in patent US4690823A, “Ibuprofen-containing soft gelatin capsules and process for preparing same” (Dolorgiet Beteiligungs-GmbH, priority 1984, dated 1987).

A short description of this series: Precipitation of ibuprofen from solution on contact with aqueous medium / artificial gastric juice or on cooling. Particulars: addition of small amounts of water, or aqueous medium such as artificial gastric juice. The class given is physicochemical. From the text:
It is an object of the present invention to provide a medicament that can be readily taken that contains an active amount of ibuprofen in a carrier, that is simple to prepare and that will quickly display a high activity. […] When such a solution, upon oral administration, gets into the stomach, then the aqueous content of the stomach causes the ibuprofen to be precipitated so that it will be barred from a quick resorption. […] In addition, these solutions may be incorporated in soft gelatin capsules in a per se known manner. The latter dosage form has an advantage over all other previously known dosage forms for ibuprofen that upon intake the active ingredient is quickly resorbed. To this effect it is not necessary that, subsequent to synthesis, the active ingredient is subjected to expensive galenic processing measures. […] In order to dissolve ibuprofen in the solvents according to the invention, the solvents are heated at 45° C. to 65° C., since only at these temperatures the dissolution will take place sufficiently fast. Upon cooling to room temperature, no reprecipitation occurs. […] It is readily possible that 40 parts by weight are additionally suspended in said solutions at room temperature and thereafter incorporated in soft gelatin capsules. […]

Regarding `CC(C)Cc1ccc(C(C)C(=O)O)cc1` (stereo not shown) [Ibuprofen, 2-(4-isobutylphenyl)propionic acid], the “precipitation on contact with aqueous medium (in words)” value is recorded as “will immediately precipitate upon the addition of small amounts of water”.
